Where only a bound is given, the exact number is not on record here.

One experiment concerns MCF7. Nature of the experiment: Antiproliferative activity against human MCF7 cells incubated for 48 hrs by CCK-8 method. The note with it: MCF7, 48 h. The experiment is classed as functional, cell-based. On the technique in general: Tetrazolium dyes change colour on reduction, which living cells bring about.
In a further experiment the test system is 4T1. Nature of the experiment: Antiproliferative activity against mouse 4T1 cells incubated for 48 hrs by CCK-8 method. The experiment is classed as functional, cell-based. The following applies: 4T1, 48 h.
Another experiment has as its system MDA-MB-468. Nature of the experiment: Antiproliferative activity against human MDA-MB-468 cells incubated for 48 hrs by CCK-8 method. The experiment is classed as functional, cell-based. The following applies: MDA-MB-468, 48 h.
The next experiment concerns MCF-10A. Nature of the experiment: Antiproliferative activity against human MCF-10A cells incubated for 48 hrs by CCK-8 method. It counts as functional, cell-based.
The subject of a further experiment is HCC1937. Nature of the experiment: Antiproliferative activity against human HCC1937 cells incubated for 48 hrs by CCK-8 method. The experiment is classed as functional, cell-based. The following applies: HCC1937, 48 h.
Experiment [1] concerns the target Mitogen-activated protein kinase 1 (Homo sapiens, UniProt P28482). Nature of the experiment: Inhibition of ERK2 (unknown origin) incubated for 60 mins by luminescence based ADP-Glo kinase assay. Background: ADP-Glo first removes unused ATP, then detects ADP through luciferase.

Chain of Mitogen-activated protein kinase 1 (P28482 whole entry): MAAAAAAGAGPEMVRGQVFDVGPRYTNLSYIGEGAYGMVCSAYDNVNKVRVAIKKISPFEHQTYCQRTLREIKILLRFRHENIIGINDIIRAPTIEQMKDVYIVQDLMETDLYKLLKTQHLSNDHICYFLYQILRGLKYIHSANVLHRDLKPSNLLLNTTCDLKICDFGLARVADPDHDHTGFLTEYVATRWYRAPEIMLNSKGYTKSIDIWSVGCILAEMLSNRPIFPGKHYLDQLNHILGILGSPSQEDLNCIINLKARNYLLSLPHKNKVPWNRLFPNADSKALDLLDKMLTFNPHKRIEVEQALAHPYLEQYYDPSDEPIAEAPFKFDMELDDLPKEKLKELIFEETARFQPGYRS

For the molecule `O=C(Nc1cc(C(F)(F)F)cc(C(F)(F)F)c1)N[C@@H](Cc1ccccc1)Cn1c[n+](Cc2ccc(F)cc2)c2ccccc21`, the IC50 (usually the point on the concentration scale where inhibition reaches its midpoint) with MCF7 was 2.84 µM; in the experiment with 4T1, 9.67 µM; in the experiment on MDA-MB-468 it was 3.22 µM; in the experiment on MCF-10A, above 10 µM; in the experiment on HCC1937 it was 4.2 µM; in experiment [1], 0.294 µM.

For `O=C(Nc1cc(C(F)(F)F)cc(C(F)(F)F)c1)N[C@@H](Cc1ccccc1)Cn1c[n+](Cc2c(Cl)cccc2Cl)c2ccccc21`, the half-maximal inhibitory concentration (IC50) was 3.15 µM in the experiment on MCF7; 5.53 µM in the experiment on 4T1; 3.45 µM in the experiment on MDA-MB-468; above 10 µM with MCF-10A; 2.15 µM with HCC1937; 0.195 µM in experiment [1].

Turning to `O=C(Nc1cc(C(F)(F)F)cc(C(F)(F)F)c1)N[C@@H](Cc1ccccc1)Cn1c[n+](Cc2cccc(Br)c2)c2ccccc21`, the IC50 is 1.8 µM in the experiment on MCF7; 2.31 µM in the experiment with 4T1; 1.58 µM in the experiment with MDA-MB-468; 8.96 µM in the experiment on MCF-10A; 1.69 µM in the experiment on HCC1937; 0.17 µM in experiment [1].

For `O=C(Nc1cc(C(F)(F)F)cc(C(F)(F)F)c1)N[C@@H](Cc1ccccc1)Cn1c[n+](Cc2cccc(C(F)(F)F)c2)c2ccccc21`, the IC50 in the experiment with MCF7 was 1.86 µM; in the experiment on 4T1, 7.03 µM; in the experiment on MDA-MB-468, 2.34 µM; with MCF-10A it was above 10 µM; in the experiment with HCC1937 it was 3.48 µM; in experiment [1] it was 0.185 µM.

For the molecule `O=C(Nc1cc(C(F)(F)F)cc(C(F)(F)F)c1)N[C@@H](Cc1ccccc1)Cn1c[n+](Cc2cc(Cl)ccc2Cl)c2ccccc21`, the IC50 with MCF7 was 3.25 µM; in the experiment on 4T1 it was 6.78 µM; in the experiment on MDA-MB-468 it was 2.62 µM; with MCF-10A, above 10 µM; in the experiment on HCC1937 it was 2.05 µM; in experiment [1], 0.193 µM.

In the case of `O=C(Nc1cc(C(F)(F)F)cc(C(F)(F)F)c1)N[C@@H](Cc1ccccc1)Cn1c[n+](Cc2ccc(Cl)cc2Cl)c2ccccc21`, the half-inhibitory concentration (IC50) in the experiment with MCF7 was 1.7 µM; in the experiment on 4T1, 4.63 µM; in the experiment with MDA-MB-468, 2.15 µM; with MCF-10A, above 10 µM; in the experiment with HCC1937 it was 1.54 µM; in experiment [1] it was 0.198 µM.

With `CC[n+]1cn(C[C@H](Cc2ccccc2)NC(=O)Nc2cc(C(F)(F)F)cc(C(F)(F)F)c2)c2ccccc21`, the concentration for half-maximal inhibition (IC50) (in the experiment with MCF7; with 4T1; in the experiment on MDA-MB-468; with MCF-10A; in the experiment on HCC1937; in experiment [1]) was above 10 µM throughout.

With `O=C(Nc1cc(C(F)(F)F)cc(C(F)(F)F)c1)N[C@@H](Cc1ccccc1)Cn1c[n+](Cc2cccc(OCc3ccccc3)c2)c2ccccc21`, the IC50 in the experiment on MCF7 was 3.2 µM; in the experiment on 4T1, 6.89 µM; with MDA-MB-468 it was 1.64 µM; in the experiment with MCF-10A, above 10 µM; in the experiment on HCC1937, 3.18 µM; in experiment [1], 0.28 µM.

Regarding `O=C(Nc1ccc(C(F)(F)F)cc1)N[C@@H](Cc1ccccc1)Cn1c[n+](Cc2ccc3ccccc3c2)c2ccccc21`, the IC50 with MCF7 was 1.07 µM; with 4T1 it was 3.72 µM; in the experiment on MDA-MB-468 it was 2.08 µM; in the experiment on MCF-10A, above 10 µM; in the experiment on HCC1937 it was 2.98 µM; in experiment [1], 0.217 µM.

`N#Cc1cccc(C[n+]2cn(C[C@H](Cc3ccccc3)NC(=O)Nc3cc(C(F)(F)F)cc(C(F)(F)F)c3)c3ccccc32)c1`: the IC50 is 3.36 µM in the experiment with MCF7; above 10 µM in the experiment on 4T1; 5.29 µM in the experiment with MDA-MB-468; above 10 µM in the experiment on MCF-10A; 5.96 µM in the experiment on HCC1937; 0.335 µM in experiment [1].

For `C=CC[n+]1cn(C[C@H](Cc2ccccc2)NC(=O)Nc2cc(C(F)(F)F)cc(C(F)(F)F)c2)c2ccccc21`, the IC50 (in the experiment on MCF7; in the experiment with 4T1; in the experiment with MDA-MB-468; with MCF-10A; in the experiment on HCC1937; in experiment [1]) was above 10 µM throughout.

As to `O=C(Nc1cc(C(F)(F)F)cc(C(F)(F)F)c1)N[C@@H](Cc1ccccc1)Cn1c[n+](Cc2ccc(C(F)(F)F)cc2)c2ccccc21`, the 50% inhibitory concentration (IC50) in the experiment with MCF7 was determined as 1.61 µM; with 4T1, 5.63 µM; with MDA-MB-468, 2.5 µM; in the experiment on MCF-10A it was 8.12 µM; in the experiment with HCC1937, 2.68 µM; in experiment [1], 0.223 µM.

Take `COc1cccc(C[n+]2cn(C[C@H](Cc3ccccc3)NC(=O)Nc3cc(C(F)(F)F)cc(C(F)(F)F)c3)c3ccccc32)c1`: the IC50 with MCF7 is 1.32 µM; in the experiment on 4T1, 3.54 µM; in the experiment on MDA-MB-468, 1.57 µM; in the experiment on MCF-10A, above 10 µM; in the experiment with HCC1937 it was 3.68 µM; in experiment [1] it was 0.247 µM.

On to `O=C(Nc1ccc(F)cc1)N[C@@H](Cc1ccccc1)Cn1c[n+](Cc2ccc3ccccc3c2)c2ccccc21`, for which the IC50 in the experiment with MCF7 came out at 1.98 µM; in the experiment on 4T1 it was 8.44 µM; with MDA-MB-468, 2.8 µM; in the experiment on MCF-10A, 8.75 µM; in the experiment on HCC1937, 3.2 µM; in experiment [1] it was 0.394 µM.

As to `O=C(Nc1ccc(Cl)cc1)N[C@@H](Cc1ccccc1)Cn1c[n+](Cc2ccc3ccccc3c2)c2ccccc21`, the IC50 in the experiment with MCF7 was 2.42 µM; in the experiment with 4T1, 7.2 µM; with MDA-MB-468, 3.02 µM; in the experiment with MCF-10A, above 10 µM; with HCC1937 it was 1.71 µM; in experiment [1] it was 0.248 µM.

For `Cc1ccccc1C[n+]1cn(C[C@H](Cc2ccccc2)NC(=O)Nc2cc(C(F)(F)F)cc(C(F)(F)F)c2)c2ccccc21`, the IC50 with MCF7 is 2.77 µM; in the experiment on 4T1, 4.83 µM; in the experiment with MDA-MB-468, 1.91 µM; in the experiment with MCF-10A, above 10 µM; in the experiment on HCC1937, 2.75 µM; in experiment [1], 0.123 µM.

Turning to `O=C(Nc1ccc(Br)cc1)N[C@@H](Cc1ccccc1)Cn1c[n+](Cc2ccc3ccccc3c2)c2ccccc21`, the IC50 in the experiment on MCF7 is 2.78 µM; in the experiment with 4T1, 6.37 µM; in the experiment with MDA-MB-468, 3.05 µM; with MCF-10A it was above 10 µM; in the experiment with HCC1937, 6.56 µM; in experiment [1], 0.277 µM.

For the molecule `Cc1cccc(C[n+]2cn(C[C@H](Cc3ccccc3)NC(=O)Nc3cc(C(F)(F)F)cc(C(F)(F)F)c3)c3ccccc32)c1`, the half-inhibitory concentration (IC50) in the experiment with MCF7 was 1.7 µM; in the experiment with 4T1 it was 6.78 µM; with MDA-MB-468, 2.36 µM; with MCF-10A, above 10 µM; in the experiment on HCC1937, 3.72 µM; in experiment [1], 0.275 µM.

On to `O=C(Nc1cc(C(F)(F)F)cc(C(F)(F)F)c1)N[C@@H](Cc1ccccc1)Cn1c[n+](Cc2cccc(F)c2)c2ccccc21`, for which the IC50 in the experiment on MCF7 turned out to be 2.43 µM; in the experiment with 4T1, 5.33 µM; in the experiment with MDA-MB-468 it was 1.71 µM; with MCF-10A it was 9.32 µM; in the experiment on HCC1937, 3.17 µM; in experiment [1] it was 0.133 µM.

Consider `O=C(Nc1cc(C(F)(F)F)cc(C(F)(F)F)c1)N[C@@H](Cc1ccccc1)Cn1c[n+](Cc2ccccc2C(F)(F)F)c2ccccc21`, for which the IC50 in the experiment with MCF7 was 1.72 µM; in the experiment with 4T1, 4.97 µM; in the experiment on MDA-MB-468, 1.88 µM; in the experiment with MCF-10A, 7.68 µM; in the experiment with HCC1937, 2.96 µM; in experiment [1] it was 0.252 µM.

Turning to `O=C(Nc1cc(C(F)(F)F)cc(C(F)(F)F)c1)N[C@@H](Cc1ccccc1)Cn1c[n+](Cc2ccccc2Cl)c2ccccc21`, the IC50 in the experiment on MCF7 was determined as 1.99 µM; in the experiment with 4T1, 3.88 µM; with MDA-MB-468 it was 2.06 µM; in the experiment with MCF-10A it was 9.18 µM; in the experiment with HCC1937, 1.87 µM; in experiment [1] it was 0.235 µM.

`O=C(Nc1cc(C(F)(F)F)cc(C(F)(F)F)c1)N[C@@H](Cc1ccccc1)Cn1c[n+](C/C=C/c2ccccc2)c2ccccc21`: the IC50 is 1.53 µM in the experiment with MCF7; 5.63 µM with 4T1; 2.44 µM in the experiment with MDA-MB-468; above 10 µM in the experiment with MCF-10A; 2.41 µM in the experiment on HCC1937; 0.237 µM in experiment [1].

Regarding `Cc1ccc(C[n+]2cn(C[C@H](Cc3ccccc3)NC(=O)Nc3cc(C(F)(F)F)cc(C(F)(F)F)c3)c3ccccc32)cc1`, the IC50 was 2.99 µM with MCF7; 5.8 µM in the experiment with 4T1; 2.24 µM in the experiment on MDA-MB-468; above 10 µM in the experiment with MCF-10A; 1.49 µM with HCC1937; 0.315 µM in experiment [1].

As for `O=C(Nc1cc(C(F)(F)F)cc(C(F)(F)F)c1)N[C@@H](Cc1ccccc1)Cn1c[n+](Cc2ccc(Cl)cc2)c2ccccc21`, the IC50 in the experiment with MCF7 stood at 1.91 µM; in the experiment on 4T1 it was 4.59 µM; in the experiment with MDA-MB-468, 1.81 µM; in the experiment on MCF-10A, 9.78 µM; in the experiment on HCC1937 it was 4.53 µM; in experiment [1], 0.319 µM.

With `O=C(Nc1cc(C(F)(F)F)cc(C(F)(F)F)c1)N[C@@H](Cc1ccccc1)Cn1c[n+](Cc2ccc(Br)cc2)c2ccccc21`, the IC50 in the experiment with MCF7 is 2.19 µM; with 4T1, 6.77 µM; in the experiment with MDA-MB-468, 2.22 µM; in the experiment with MCF-10A it was above 10 µM; in the experiment on HCC1937, 1.82 µM; in experiment [1] it was 0.338 µM.

Take `Cc1cc(C)cc(NC(=O)N[C@@H](Cc2ccccc2)Cn2c[n+](Cc3ccc4ccccc4c3)c3ccccc32)c1`: the IC50 with MCF7 is 2.7 µM; in the experiment on 4T1, 7.82 µM; with MDA-MB-468, 3.25 µM; in the experiment on MCF-10A, above 10 µM; with HCC1937, 5.98 µM; in experiment [1] it was 0.327 µM.

As to `O=C(Nc1ccc(Cl)c(C(F)(F)F)c1)N[C@@H](Cc1ccccc1)Cn1c[n+](Cc2ccc3ccccc3c2)c2ccccc21`, the IC50 with MCF7 was 1.59 µM; in the experiment with 4T1, above 10 µM; with MDA-MB-468 it was 1.29 µM; with MCF-10A, above 10 µM; with HCC1937, 2.55 µM; in experiment [1], 0.244 µM.

Take `O=C(Nc1ccc(Cl)c(Cl)c1)N[C@@H](Cc1ccccc1)Cn1c[n+](Cc2ccc3ccccc3c2)c2ccccc21`: the IC50 with MCF7 was determined as 1.55 µM; with 4T1 it was 6.77 µM; in the experiment on MDA-MB-468, 2.45 µM; in the experiment on MCF-10A it was 9.72 µM; with HCC1937, 3.37 µM; in experiment [1], 0.215 µM.

For the origin of these results see ChEMBL document CHEMBL6153138, “Discovery of Novel Aromatic Urea-Imidazole Salt Derivatives for Cancer Therapy via Targeting ERK1/2” (J Med Chem, 2025).
